Experimental findings from ChEMBL document CHEMBL1147565, “Imidazo[1,2-a]pyridines. Part 2: SAR and optimisation of a potent and selective class of cyclin-dependent kinase inhibitors” (Bioorg Med Chem Lett, 2004) are described below.

Experiment [1] deals with Cyclin-dependent kinase 2 (Homo sapiens, UniProt P24941). Briefly: Inhibitory concentration against cyclin-dependent kinase 2.
Experiment [2] deals with MCF7. Briefly: Inhibitory activity against BrdU incorporation to MCF-7 cell line following 3 day exposure to compound. As to conditions: Homo sapiens, MCF7, 72 h. It is filed as functional, cell-based. (Uptake of a labelled nucleoside into DNA is a usual measure of proliferation.)
For experiment [3], the target named is Cyclin-dependent kinase 1 (Homo sapiens, UniProt P06493). The experiment in a line: Inhibition of Cyclin-dependent kinase 1.
Experiment [4] deals with Cyclin-dependent kinase 4 (Homo sapiens, UniProt P11802). The experiment in a line: Inhibition of Cyclin-dependent kinase 4.
For experiment [5], the system named is MCF7. Briefly: Inhibition of cyclin-dependent kinase phosphorylation of S249-T252 of Rb protein in MCF-7 cells. It is filed as functional, cell-based. Particulars: Homo sapiens.

Chain of Cyclin-dependent kinase 1 (P06493 whole entry): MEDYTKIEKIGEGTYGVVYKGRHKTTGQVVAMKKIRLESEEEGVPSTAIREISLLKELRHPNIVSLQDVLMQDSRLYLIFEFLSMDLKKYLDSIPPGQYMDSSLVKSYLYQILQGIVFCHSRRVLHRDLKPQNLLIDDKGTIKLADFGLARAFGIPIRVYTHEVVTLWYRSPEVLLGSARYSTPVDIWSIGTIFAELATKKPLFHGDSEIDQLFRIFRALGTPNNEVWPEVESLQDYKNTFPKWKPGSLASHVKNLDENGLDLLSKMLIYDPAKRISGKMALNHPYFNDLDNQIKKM
Chain of Cyclin-dependent kinase 4 (P11802 whole entry): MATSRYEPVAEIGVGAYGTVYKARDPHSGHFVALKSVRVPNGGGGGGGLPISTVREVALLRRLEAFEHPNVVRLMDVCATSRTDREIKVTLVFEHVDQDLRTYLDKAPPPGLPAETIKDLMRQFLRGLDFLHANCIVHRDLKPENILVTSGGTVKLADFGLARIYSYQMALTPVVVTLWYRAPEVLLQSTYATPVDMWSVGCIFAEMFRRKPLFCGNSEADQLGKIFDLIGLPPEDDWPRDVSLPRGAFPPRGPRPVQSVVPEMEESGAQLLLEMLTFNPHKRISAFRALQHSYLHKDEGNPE

The molecule `COCCNS(=O)(=O)c1ccc(Nc2nccc(-c3cnc4ccc(Sc5ccccc5)cn34)n2)cc1` returned an IC50 in experiment [1] of 16 nM.

On to `Cc1nc2ccccn2c1-c1ccnc(Nc2ccccc2Cl)n1`, for which the IC50 in experiment [1] stood at 8800 nM.

For `CNS(=O)(=O)c1ccc(Nc2nccc(-c3cnc4ccccn34)n2)cc1`, the IC50 was 260 nM in the experiment with MCF7 [2] and below 3 nM in experiment [1].

For `COCCNS(=O)(=O)c1ccc(Nc2nccc(-c3cnc4ccccn34)n2)cc1`, the values for the 50% inhibitory concentration (IC50) (in the experiment with MCF7 [2]; in experiment [1]) were 390 nM and 12 nM, respectively.

`COCCNS(=O)(=O)c1ccc(Nc2nccc(-c3cnc4ccc(C#N)cn34)n2)cc1` came in with an IC50 in experiment [1] below 3 nM.

`COCCNS(=O)(=O)c1ccc(Nc2ncc(Br)c(-c3cnc4ccccn34)n2)cc1` had an IC50 in experiment [1] below 3 nM.

In the case of `CN(C)CCCN(C)S(=O)(=O)c1ccc(Nc2nccc(-c3cnc4ccccn34)n2)cc1`, the IC50 in the experiment on MCF7 [2] amounted to 440 nM; in experiment [1] it was 5 nM.

Regarding `CN(C)CCCNS(=O)(=O)c1ccc(Nc2nccc(-c3cnc4ccccn34)n2)cc1`, the IC50 in the experiment on MCF7 [2] was 70 nM; in experiment [1] it was below 3 nM.

In experiment [1], `Cc1nc2ccccn2c1-c1ccnc(Nc2ccccc2)n1` displayed an IC50 of 210 nM.

`COCCNS(=O)(=O)c1ccc(Nc2ncc(Cl)c(-c3cnc4ccccn34)n2)cc1` yielded a concentration for half-maximal inhibition (IC50) in experiment [1] below 3 nM.

In the case of `Clc1cccc(Nc2nccc(-c3cnc4ccccn34)n2)c1`, in experiment [1], the IC50 turned out to be 5 nM.

Consider `Cc1nc2ccccn2c1-c1ccnc(Nc2ccc(S(N)(=O)=O)cc2)n1`, for which inhibition in experiment [1] was half-maximal at 38 nM (IC50).

Consider `CN(C)CCNS(=O)(=O)c1ccc(Nc2nccc(-c3cnc4ccccn34)n2)cc1`, for which the IC50 is 70 nM with MCF7 [2]; 15 nM in experiment [3]; 260 nM in experiment [4]; 5 nM in experiment [1]; 50 nM in the experiment on MCF7 [5].

For the molecule `c1ccc(Nc2nccc(-c3cnc4ccccn34)n2)cc1`, the half-maximal inhibitory concentration (IC50) in experiment [1] was below 3 nM.

In turn, `COCCNS(=O)(=O)c1ccc(Nc2ncc(Sc3ccccc3)c(-c3cnc4ccccn34)n2)cc1` gave an IC50 in experiment [1] above 10000 nM.

For `COCCNS(=O)(=O)c1ccc(Nc2nccc(-c3cnc4ccc(Br)cn34)n2)cc1`, the IC50 in experiment [1] is below 3 nM.

Turning to `Cc1nc2ccccn2c1-c1ccnc(Nc2cccc(Cl)c2)n1`, half-maximal inhibition in experiment [1] (IC50) required 150 nM.

Consider `CCSc1ccc2ncc(-c3ccnc(Nc4ccc(S(=O)(=O)NCCOC)cc4)n3)n2c1`, for which, in experiment [1], the IC50 was below 3 nM.

Turning to `COCCCNS(=O)(=O)c1ccc(Nc2nccc(-c3cnc4ccccn34)n2)cc1`, the IC50 in the experiment on MCF7 [2] was 600 nM; in experiment [3], 6 nM; in experiment [4], 3100 nM; in experiment [1], 4 nM; in the experiment with MCF7 [5] it was 400 nM.

`NS(=O)(=O)c1ccc(Nc2nccc(-c3cnc4ccccn34)n2)cc1` displayed a half-inhibitory concentration (IC50) in experiment [1] below 3 nM.

Take `Cc1nc2ccccn2c1-c1ccnc(Nc2ccc(Cl)cc2)n1`: the IC50 in experiment [1] stood at 620 nM.

As to `Clc1cccc(Nc2nccc(-n3cnc4ccccc43)n2)c1`, the IC50 in experiment [1] turned out to be 680 nM.

Broadly, the IC50 is the midpoint of a concentration-inhibition curve. A higher IC50 goes with weaker potency.
